Entries after “also recorded” stand apart in the source; their conditions may differ. Blank lines part the entries; values can stand above or below the substance they belong to.
Columns and labels:
[1] = system: MCF-7 cells; test: Confocal microscopy of live cells: cellular uptake and intracellular localization; format: cell-based; settings: live MCF-7 cells, 1 h, 37 °C, DMEM + 1% FBS
Description: MitoTracker Deep Red was used as a counter stain for mitochondria and Hoechst 33342 for the nucleus. […] To explore whether PPII-helicity is key for mitochondrial localization, we prepared peptide CF-Ahx-(ChaRR)3-NH2 with Arg instead of Gup residues. This control peptide features a flexible conformation as judged by CD spectroscopy (Figure S1B). […] These findings show the importance of the secondary structure of the CPP for subcellular organelle localization.
MCF-7 cells were seeded in a 8-μwell Ibidi plate at 25′000 cells/well in DMEM (100 μL, 10% FCS) and allowed to adhere overnight. The medium was removed, the cells were washed with PBS (200 μL, 1x) and incubated with the peptide solution at 20 μM, 10 μM, 5 μM or 2.5 μM in DMEM (200 μL, 1% FCS) for 1 h at 37 °C. The medium was removed, and the cells were washed with PBS (200 μL, 2x). MitoTracker Deep Red was distributed at 20 nM in DMEM (200 μL, 1% FBS) and the cells were incubated at 37 °C for 25 min. The medium was removed, and the cells were washed with PBS (200 μL, 2x). Hoechst333342 was distributed at 2 μM in DMEM (200 μL, 1% FBS) and the cells were incubated at 37 °C for 5 min. The cells were washed with PBS (200 μL, 2x), and FluoroBrite medium (200 μL) was added. The live cells were monitored on the confocal microscope at 37 °C, 5% CO2.
For the cells subjected to a 24 h rest period, the FluoroBrite medium was exchanged for DMEM (200 μL, 10% FBS) after the initial imaging, and the cells were kept in this medium for 24 h. The culture medium was then exchanged for FluoroBrite DMEM, and the cells were imaged again.
Fluorescence images of cells were collected using a Nikon Eclipse T1 (inverse) microscope equipped with a Yokogawa Confocal Scanner Unit CSU-W1-T2, containing a spinning disk (50 µm). The microscope is equipped with two EMCCD Andor iXon Ultra cameras. Emission in the blue channel (405 nm) was filtered with a 450/50 bandpass filter, emission in the green channel (488 nm) was filtered with a 525/50 bandpass, and the emission in the red channel (641 nm) was filtered with a 708/75 bandpass filter. Fluorescence images were obtained using an oil-immersion objective with a magnification of 100 × 1.4 CFI Plan Apo Oil.
Each experiment was repeated at least three times. The images acquired were adjusted using ImageJ2 software. Correlation coefficients were determined on entire images using JaCOP plugin.1 […]
MCF-7 cells were seeded in a 8-µwell Ibidi plate at 25’000 cells/well in DMEM (100 µL, 10% FCS) and allowed to adhere overnight. The medium was removed. The cells were washed with PBS (200 µL, 1x) and incubated with the peptide solution at 20 µM, 10 µM, 5 µM, or 2.5 µM in DMEM (200 µL, 1% FCS) for 1 h at 37 °C. The medium was removed, and the cells were washed with PBS (200 µL, 2x).
For imaging of mitochondria, MitoTracker Deep Red was added as described in the manuscript. For imaging of endosomes/lysosomes, Ly s o Tr a c k e r Deep Red was added (200 µL, 20 nM in DMEM, 1% FBS) followed by incubation of the cells at 37 °C for 25 min. The medium was removed, and the cells were washed with PBS (200 µL, 2x). For imaging of the nucleus, Hoechst333342 was added at (200 µL, 2 µM in DMEM, 1% FBS) followed by incubation of the cells at 37 °C for 5 min. The cells were washed with PBS (200 µL, 2x), and FluoroBrite medium (200 µL) was added. The live cells were monitored on the confocal microscope […]
MCF-7 cells were seeded in a 96-well plate at 7’500 cells/well in cell culture medium (200 µL, 10% FCS), and allowed to adhere overnight. The medium was removed, the cells were washed with PBS (100 µL, 1x) and incubated with the peptide solution at 20 µM, 10 µM, 5 µM, or 2.5 µM in DMEM (200 µL, 1% FCS) for 1 h at 37 °C. The medium was removed, and the cells were washed with PBS (100 µL, 1x). The MTT solution in DMEM (110 µL, 1.2 mM, 1% FBS) was added. The cells were incubated for 3 h at 37 °C. The […]

[2] = system: MCF-7 cells; test: Flow cytometry (FACS): overall cellular uptake; format: cell-based; settings: MCF-7, 1 h, 37 °C, Figure S1D
Description: MCF-7 cells were seeded in a 24-well plate at 150′000 cells/well in DMEM (1 mL, 10% FCS), and allowed to adhere overnight. The medium was removed, the cells were washed with PBS (250 μL, 1x) and incubated with the peptide solution at 20 μM, 10 μM, 5 μM or 2.5 μM in medium (200 μL, 1% FCS) for 1 h at 37 °C. The medium was removed, and the cells were washed with PBS (250 μL, 2x). Trypsin (100 μL, 0.05%) was added, and the cells were incubated at 37 °C for 5 min. D-PBS with Mg^2+ and Ca^2+ (300 μL, 4 °C) was added, the cells were resuspended and centrifuged for 5 min at 0.4 rcf. The supernatant was carefully removed, and the cells were resuspended in a solution of PBS containing 1.5 μM PI and 2 mM EDTA (400 μL at 4 °C). The cells were added to FACS tubes and kept on ice prior to analysis. Each sample contained 10′000 cells and was analyzed in triplicate. Each experiment was repeated three times.
For the experiments that included the 24 h rest period, the peptides were incubated as described above. After the 1 h incubation time, the cells were washed with PBS (250 μL, 2x), DMEM (250 μL, 10% FBS) was added, and the cells were kept at 37 °C, 5% CO2 for 24 h. For a direct comparison of the effect of a 24 h rest period, another set of peptides was incubated with the cells for 1 h. Then, cells of both sets of experiments (1 h followed by the 24 h rest period versus 1 h incubation) were washed with PBS, treated with trypsin, and prepared for FACS analysis as described above. Each sample was run in triplicate and was repeated three times. […]
MCF-7 cells were obtained from the American Type Culture Collection (ATCC).
The cells were grown in a humidified 5% CO2 atmosphere at 37 °C Dulbecco’s Modified Eagle’s Medium (DMEM), high glucose, GlutaMAXTM (4 mM) supplemented with L-glutamine (4 mM), gentamicin (10 mg/L), […]
Fluorescence-Activated Cell Sorting (FACS) analyzer
On a BD LSRFortessa flow cytometer, CF was excited at 488 nm and monitored with 530/30 bandpass, PI was excited at 561 nm and monitored with a 610/20 bandpass. Mean fluorescence values were determined from the histograms using FlowJo 10.0.6 software while dead cells were removed according to PI staining.
Below is an example, CF-Ahx-(ChaZZ)3, of gating, set on untreated cells and propagated to all samples.
Each sample was run in triplicate, and each experiment was repeated at least three times.
(1 picture or pasted object on this page, not shown here)

[3] = RP-HPLC retention time as estimate of hydrophobicity (C4 column, 30 to 55% B); format: physicochemical; settings: RP-HPLC used as estimate of hydrophobicity, A H2O/MeCN/TFA (1000/10/1), gradient 30 to 55% B, 20 min, CF-Ahx-labelled peptides
Description: 2 (A) General structure of amphipathic peptides, CF-Ahx-[XZZ]3-NH2; CF = 5(6)-Carboxyfluorescein, Ahx = aminohexanoic acid. (B) CD spectra of the peptides, recorded at 50 μM in H2O, pH 5.7. For a comparison with a spectrum of a Gup oligomer, see Figure S2. (C) Retention time of the peptides measured by RP-HPLC on a C4 column with a mobile phase from 30 to 55% of MeCN in H2O/MeCN/TFA (1000/10/1). (D) Representative confocal microscopic images of live MCF-7 cells, incubated for 1 h at 37 °C with peptide solutions at a concentration of 10 μM in DMEM + 1% FBS (left, in green). Mitochondria were stained with Deep Red MitoTracker (middle, in red) and merged images (right, orange/yellow indicating colocalization) with Hoechst33342 stain (blue) for the nucleus. TEXT PRINTED IN THE PICTURE: (C) (ValZZ)3: tr(min): 1.8 | (C) (PheZZ)3: tr(min): 2.9 | (C) (TrpZZ)3: tr(min): 3.2 | (C) (ChaZZ)3: tr(min): 5.4 DOUBTS OF THE COPYIST ABOUT THIS PICTURE: Panel C, column head: the small lowered letter after t is read as r (tr), not certain
The Gup residues should preorganize the peptides into a PPII helix with one hydrophobic and two cationic edges along the PPII helical peptide. Indeed, circular dichroism (CD) spectra of the peptides display the characteristic minimum and maximum at ∼206 nm and ∼224 nm, respectively, of a PPII helix (Figure B). The spectra imply that the non-proline residues in every third position are tolerated within the helical structure. We used reverse phase high performance liquid chromatography (RP-HPLC) for an estimate of the hydrophobicity of the peptides. On a C4 column using two mobile phases A (H2O/MeCN/TFA (1000/10/1)) and B (MeCN) with a gradient of 30% to 55% B, all peptides eluted over 20 min but with different retention times (Figure C). The Cha-containing peptide had the longest retention time, indicating the highest hydrophobicity within the series, followed by the Trp-, Phe-, and Val-peptides.

[4] = earlier work of the authors' group; ref number not given; cited from earlier work
Source text: Octa-Gup adopts a polyproline II (PPII) helix in which every third amino acid is aligned (Figure E, center). As a result, the charges are organized along the three edges of the helix. […] In contrast, more flexible analogs–octaarginine and an oligoproline with spacers between the proline backbone and the guanidinium group–are trapped in endo ...

[5] = 10 μM peptide, MitoTracker Deep Red and Hoechst 33342 counterstain

Substance: CF-Ahx-(ChaRR)3-NH2
Cellular uptake and intracellular localization (confocal microscopy) ([1]; 5 μM peptide): low uptake | Cellular uptake and intracellular localization (confocal microscopy) [1, 5]: excluded from mitochondria | Cellular uptake and intracellular localization (confocal microscopy) ([1]; 10 μM peptide, MitoTracker Deep Red and Hoechst 33342 counterstain, listed as CF-Ahx-(ChaRR)3-NH2): high uptake into the cytoplasm and the nucleus, but little to no uptake into mitochondria | Cellular uptake compared to (ChaZZ)3 (FACS) [2]: enhanced cellular uptake

Retention time tr [3]: 4.9 min
Substance: CF-Ahx-(ChaZZ)2-NH2
Cellular uptake and intracellular localization (confocal microscopy) ([1]; 20 μM peptide): did not penetrate into the cells; also recorded: intracellular fluorescence was not detected

Substance: CF-Ahx-VZZVZZVZZ [(ValZZ)3, 9-mer CF-Ahx-(XZZ)3-NH2 with X = valine, Z = Gup]
Cellular uptake and intracellular localization (confocal microscopy) [1, 5]: little cellular uptake | Cellular uptake and intracellular localization (confocal microscopy) ([1]; 20 μM peptide): little cellular uptake

Substance: octaarginine
Cellular uptake and intracellular localization [4]: trapped in endosomes to a significant extent and exhibit reduced cellular uptake
